Source: PMC5517562, “Design and discovery of novel monastrol-1,3,5-triazines as potent anti-breast cancer agent via attenuating Epidermal Growth Factor Receptor tyrosine kinase” (Scientific Reports, 2017)
Like-named read-outs stand apart in the source and are kept apart here.

Legend:
HeLa (cervical cancer) = assay: MTT in vitro cytotoxicity assay, HeLa; type: cell-based, human
Method: (§1) The synthesized compounds were evaluated for in-vitro cytotoxic activity against various cell lines such as HeLa (cervical cancer), MCF-7 (breast cancer), HL-60 (Human promyelocytic leukemia), HepG2 (Hepatocellular carcinoma) and MCF 12A (normal epithelial cell) by the MTT assay method. […] The relationship between surviving fraction and drug concentration was plotted to obtain the survival curve of all the cancer cell lines HeLa, MCF-7, HL-60 and HepG2. The response parameter calculated was the IC50 values, which responds to the concentration required for 50% inhibition of cell viability. The in-vitro cytotoxic activity of the synthesized compounds is summarized Table 3.
(§2) The target compounds were subjected to in vitro cytotoxicity bioassay. In vitro cytotoxicity was determined using a standard MTT assay with protocol appropriate for the individual test system[29]–[31]. The four human cancer cell lines HeLa, MCF-7, HL-60, HepG2 and MCF-12A were cultured in the MEM medium supplemented with 10% FBS, 1% glutamine and […] gentamicin sulfate in a CO2 incubator in a humidified atmosphere of 5% CO2 and 95% air. The test compounds were prepared prior to the experiment by dissolving in 0.1% DMSO and diluted with medium. The cells were then exposed to different concentrations of drugs ([…]) in the volume of […]. Cells in the control wells received the same volume of medium containing 0.1% DMSO. After 24 h, the medium was removed and cell cultures were incubated with […] MTT reagent (1 mg/ml) for 5 h at 37 °C. The known number of cells ([…]) was incubated in a 5% CO2 incubator at 37 °C in the presence of different concentrations of test compounds. After 48 h of drug incubation, the MTT solution was added in each well and absorbance was recorded at 540 nm by an ELISA reader. The experiment was performed in triplicate. Cell survival was calculated as the percentage of MTT inhibition as % growth inhibition = 100 − (mean OD of individual test Group/Mean OD of each Control Group) × 100.

MCF-7 (breast cancer) = assay: MTT in vitro cytotoxicity assay, MCF-7; type: cell-based, human
Method: as §1, §2

[1] = system: MCF 12A (normal epithelial breast cell line); assay: MTT assay on normal cells, MCF 12A; type: cell-based, human; conditions: normal epithelial breast cell MCF 12A; for IC50: Homo sapiens
Method: as §1
The presence of non-halogen substituent along with electron donating substituent seriously jeopardise the anticancer potential. […] To determine the selectivity of these molecules between normal and cancerous cells, the designed compounds were also tested against MCF 12A, a normal epithelial breast cell.
as §2

EGFR-TK = molecular target: T1, EGFR-TK (Homo sapiens, UniProt P00533); assay: EGFR tyrosine kinase inhibitory activity (Kinase-Glo Plus luminescence); type: biochemical; conditions: for inhibition at 10 µM: read-out: Percent of Inhibition, EGFR tyrosine kinase; for %i: EGFR-TK percent inhibition as repeated in docking Table 5; for inhibition at 10 µM / Percent of Inhibition, EGFR tyrosine kinase: at 10 µM
T1 construct: 0.2 mg/mL Poly (Glu, Tyr) substrate, 10 mM ATP and EGFR
T1 sequence (P00533 25-1210): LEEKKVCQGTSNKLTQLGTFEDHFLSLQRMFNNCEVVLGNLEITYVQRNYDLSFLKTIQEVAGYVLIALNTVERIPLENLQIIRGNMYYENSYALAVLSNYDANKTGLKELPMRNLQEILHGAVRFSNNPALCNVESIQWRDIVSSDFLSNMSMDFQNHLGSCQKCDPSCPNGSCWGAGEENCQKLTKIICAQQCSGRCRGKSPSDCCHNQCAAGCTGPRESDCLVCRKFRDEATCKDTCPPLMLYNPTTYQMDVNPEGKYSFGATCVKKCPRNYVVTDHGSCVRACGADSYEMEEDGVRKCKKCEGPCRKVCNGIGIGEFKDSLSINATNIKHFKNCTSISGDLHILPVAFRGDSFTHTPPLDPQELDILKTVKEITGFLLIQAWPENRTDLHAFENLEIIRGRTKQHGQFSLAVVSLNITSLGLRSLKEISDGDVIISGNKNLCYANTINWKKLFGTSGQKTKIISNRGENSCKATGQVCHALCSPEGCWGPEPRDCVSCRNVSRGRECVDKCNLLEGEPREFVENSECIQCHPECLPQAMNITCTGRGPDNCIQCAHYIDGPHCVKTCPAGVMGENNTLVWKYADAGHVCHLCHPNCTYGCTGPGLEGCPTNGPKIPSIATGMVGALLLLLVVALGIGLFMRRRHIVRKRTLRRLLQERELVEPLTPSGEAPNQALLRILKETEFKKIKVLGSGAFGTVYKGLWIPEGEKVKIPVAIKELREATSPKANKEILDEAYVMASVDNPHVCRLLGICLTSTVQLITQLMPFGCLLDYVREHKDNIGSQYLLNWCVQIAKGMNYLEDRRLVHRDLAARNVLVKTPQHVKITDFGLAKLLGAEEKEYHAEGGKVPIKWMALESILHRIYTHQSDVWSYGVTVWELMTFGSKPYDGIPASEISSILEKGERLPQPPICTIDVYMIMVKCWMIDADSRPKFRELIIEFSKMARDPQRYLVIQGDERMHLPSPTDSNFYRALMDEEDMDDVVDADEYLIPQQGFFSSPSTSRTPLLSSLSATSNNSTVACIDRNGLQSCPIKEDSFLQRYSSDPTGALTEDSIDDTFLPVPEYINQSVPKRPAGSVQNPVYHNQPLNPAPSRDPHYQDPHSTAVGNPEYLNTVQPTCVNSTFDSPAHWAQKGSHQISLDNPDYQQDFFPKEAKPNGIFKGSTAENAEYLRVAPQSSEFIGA
Method: Kinase activity was determined using Kinase-Glo Plus luminescence kinase assay kit, by quantitating the amount of ATP remaining in the solution of kinase reaction. The luminescent signal is correlated with the residual amount present and it was inversely related with kinase activity. The tested compounds were diluted to 100 mM in 10% DMSO, then […] of the dilution was added to a 50 mL reaction. All of the enzymatic reactions were performed at 30 °C for 40 min, 50 mL of reaction mixture contains 10 mM MgCl2, 40 mM Tris, pH 7.4, 0.1 mg/mL BSA, 0.2 mg/mL Poly (Glu, Tyr) substrate, 10 mM ATP and EGFR. Incubate the plate for 5 min at r.t. then add 50 mL of Kinase-GloPlus Luminescence kinase assay to each reaction. ADP-Glo assay kit is the protein kinase assays used to determine IC50 values in which ADP generation was measured as it leads to an increase in luminescence signal. The reaction mixture was incubated in a 96-well plate at 30 °C for 30 min, after the incubation period add 25 mL of ADP-Glo reagent to terminate the assay. Shake the 96-well plate for 30 min at ambient temperature then incubate it, then add 50 mL of kinase detection reagent. Read the 96-well plate using the ADP-Glo Luminescence reader. All the assay components were added to the blank control except the substrate. By removing the blank control value you can obtain the corrected activity for each protein kinase target.

[2] = system: HepG2 (Hepatocellular carcinoma); assay: MTT in vitro cytotoxicity assay, HepG2; type: cell-based, human; conditions: NA: Not active
Method: as §1, §2

[3] = system: HL-60 (Human promyelocytic leukemia); assay: MTT in vitro cytotoxicity assay, HL-60; type: cell-based
Method: as §1, §2

SMILES	IC50 (HeLa (cervical cancer); Homo sapiens)	IC50 (MCF-7 (breast cancer); Homo sapiens, MCF7)	IC50 [1]	inhibition at 10 µM (EGFR-TK)	IC50 ([2]; Homo sapiens)	melting point	IC50 ([3]; Homo sapiens)	IC50 MCF 12A [1]	%i (EGFR-TK)	Percent of Inhibition, EGFR tyrosine kinase (EGFR-TK)	IC50 (HeLa (cervical cancer))	IC50 (MCF-7 (breast cancer))	IC50 [2]	IC50 [3]
CCOC(=O)C1=C(C)N(c2nc(Nc3cccc(Cl)c3)nc(Nc3cccc(Cl)c3)n2)C(=S)NC1c1ccc(F)cc1 (stereo not shown) [7m, Ethyl 1-(4,6-bis((3-chlorophenyl)amino)-1,3,5-triazin-2-yl)-4-(4-fluorophenyl)-6-methyl-2-thioxo-1,2,3,4-tetrahydropyrimidine-5-carboxylate]	42.1 ± 0.34 µM	53.8 ± 0.28 µM	73.56 ± 0.4 µM	88.5%	39.3 ± 0.12 µM	153 to 155 °C	36.5 ± 0.48 µM	–	–	–	–	–	–	–
CCOC(=O)C1=C(C)N(c2nc(Nc3cccc(F)c3)nc(Nc3cccc(F)c3)n2)C(=S)NC1c1ccccc1OC (stereo not shown) [7g, Ethyl 1-(4,6-bis((3-fluorophenyl)amino)-1,3,5-triazin-2-yl)-4-(2-methoxyphenyl)-6-methyl-2-thioxo-1,2,3,4-tetrahydropyrimidine-5-carboxylate]	42.1 ± 0.12 µM	47.4 ± 0.27 µM	77.22 ± 0.34 µM	94.3%	36.3 ± 0.47 µM	132 to 135 °C	31.5 ± 0.21 µM	–	–	–	–	–	–	–
CCOC(=O)C1=C(C)N(c2nc(Nc3cccc(Cl)c3)nc(Nc3cccc(Cl)c3)n2)C(=S)NC1c1ccc(O)cc1 (stereo not shown) [7d, Ethyl 1-(4,6-bis((3-chlorophenyl)amino)-1,3,5-triazin-2-yl)-4-(4-hydroxyphenyl)-6-methyl-2-thioxo-1,2,3,4-tetrahydropyrimidine-5-carboxylate]	51.3 ± 0.32 µM	61.3 ± 0.78 µM	–	74.8%	41.4 ± 0.38 µM	161 to 163 °C	43.2 ± 0.38 µM	non-toxic	–	–	–	–	–	–
CCOC(=O)C1=C(C)N(c2nc(Nc3cccc(Br)c3)nc(Nc3cccc(Br)c3)n2)C(=S)NC1c1ccc([N+](=O)[O-])cc1 (stereo not shown) [7k, Ethyl 1-(4,6-bis((3-bromophenyl)amino)-1,3,5-triazin-2-yl)-6-methyl-4-(4-nitrophenyl)-2-thioxo-1,2,3,4-tetrahydropyrimidine-5-carboxylate]	66.4 ± 0.67 µM	65.6 ± 0.43 µM	–	~69%	59.7 ± 0.69 µM	–	51.3 ± 0.82 µM	non-toxic	70.1%	70.1%	–	–	–	–
CCOC(=O)C1=C(C)N(c2nc(Nc3ccc(C)cc3)nc(Nc3ccc(C)cc3)n2)C(=S)NC1c1ccccc1C (stereo not shown) [7n, Ethyl 1-(4,6-bis(p-tolylamino)-1,3,5-triazin-2-yl)-6-methyl-2-thioxo-4-(o-tolyl)-1,2,3,4-tetrahydropyrimidine-5-carboxylate]	92.6 ± 0.23 µM	93.2 ± 0.58 µM	–	54.2%	–	205 to 207 °C	104.5 ± 0.39 µM	non-toxic	–	–	–	–	–	–
CCOC(=O)C1=C(C)N(c2nc(Nc3ccccc3[N+](=O)[O-])nc(Nc3ccccc3[N+](=O)[O-])n2)C(=S)NC1c1cccc(Br)c1 (stereo not shown) [7i, Ethyl 1-(4,6-bis((2-nitrophenyl)amino)-1,3,5-triazin-2-yl)-4-(3-bromophenyl)-6-methyl-2-thioxo-1,2,3,4-tetrahydropyrimidine-5-carboxylate]	76 ± 0.54 µM	76.4 ± 0.33 µM	–	~69%	71.6 ± 0.29 µM	185 to 186 °C	66.7 ± 0.67 µM	non-toxic	69.3%	69.3%	–	–	–	–
CCOC(=O)C1=C(C)N(c2nc(Nc3ccc(C)cc3)nc(Nc3ccc(C)cc3)n2)C(=S)NC1c1ccc(O)cc1 (stereo not shown) [7o, Ethyl 1-(4,6-bis(p-tolylamino)-1,3,5-triazin-2-yl)-4-(4-hydroxyphenyl)-6-methyl-2-thioxo-1,2,3,4-tetrahydropyrimidine-5-carboxylate]	94.3 ± 0.78 µM	89.4 ± 0.49 µM	–	45.6%	–	131 to 133 °C	98.3 ± 0.27 µM	non-toxic	–	–	–	–	–	–
N.N.[Cl][Pt][Cl] [Cisplatin, reference compound]	–	–	–	–	–	–	–	non-toxic	–	–	32.5 ± 0.62 µM	24.4 ± 0.92 µM	25.9 ± 0.82 µM	12.3 ± 0.76 µM
